Assay results reported in patent US8410020B2, “Fungicidal composition comprising a pyridylethylbenzamide derivative and a compound capable of inhibiting the methionine biosynthesis” (Bayer Cropscience AG, priority 2004, dated 2013).

What was measured:
Assay type in all cases: in vivo
[1] = tested on: Erysiphe graminis f. sp. tritici; assay: Efficacy against Erysiphe graminis on wheat plants (preventive spray, 24 h before contamination); details: grading 7 to 14 days after contamination
Description: (§1) The active ingredients tested are prepared by potter homogenisation in a mixture of acetone/tween/water. This suspension is then diluted with water to obtain the desired active material concentration.
Wheat plants (Audace variety) in starter cups, sown on 50/50 peat soil-pozzolana substrate and grown at 12° C., are treated at the 1-leaf stage (10 cm tall) by spraying with the aqueous suspension described above.
(§2) Plants, used as controls, are treated with an aqueous solution not containing the active material.
After 24 hours, the plants are contaminated by dusting them with Erysiphe graminis f. sp. tritici spores, the dusting being carried out using diseased plants.
(§3) Grading is carried out 7 to 14 days after the contamination, in comparison with the control plants.

Botrytis cinerea = assay: Efficacy against Botrytis cinerea on gherkin plants (preventive spray, 24 h before contamination); details: grading 5 to 7 days after contamination
Description: The formulated (concentrated suspension) compounds are diluted with water to obtain the desired active material concentration Gherkin plants (Petit vert de Paris variety) in starter cups, sown on a 50/50 peat soil-pozzolana substrate and grown at 18-20° C., are treated at the cotyledon Z11 stage by spraying with the aqueous suspension described above. Plants, used as controls, are treated with an aqueous solution not containing the active material.
After 24 hours, the plants are contaminated by depositing drops of an aqueous suspension of Botrytis cinerea spores (150,000 spores per ml) on upper surface of the leaves. The spores are collected from a 15-day-old culture and are suspended in a nutrient solution composed of: • 20 g/L of gelatine • 50 g/L of cane sugar • 2 g/L of NH4NO3 • 1 g/L of KH2PO4
The contaminated gherkin plants are settled for 5/7 days in a climatic room at 15-11° C. (day/night) and at 80% relative humidity. Grading (% of efficacy) is carried out 5 to 7 days after the contamination, in comparison with the control plants.

[2] = tested on: Erysiphe graminis f. sp. hordei; assay: Efficacy against Erysiphe graminis f. sp. hordei on barley plants (preventive spray, 24 h before contamination); details: dose 500 g/ha, grading 7 to 14 days after contamination
Description: as §1
Barley plants (Express variety) in starter cups, sown on 50/50 peat soil-pozzolana substrate and grown at 12° C., are treated at the 1-leaf stage (10 cm tall) by spraying with the aqueous suspension described above.
as §2
After 24 hours, the plants are contaminated by dusting them with Erysiphe graminis f. sp. hordei spores, the dusting being carried out using diseased plants.
as §3

Cc1cc(C2CC2)nc(Nc2ccccc2)n1 [Cyprodinil, cyprodinil]
% Efficacy ([1]; dose 31.2 g/ha): 0%

Cc1cc(C)nc(Nc2ccccc2)n1 [Pyrimethanil, pyrimethanil]
% Efficacy (Botrytis cinerea; dose 12.3 ppm): 90%

CC#Cc1cc(C)nc(Nc2ccccc2)n1 [Mepanipyrim, mepanipyrim]
% Efficacy [2]: 0%

O=C(NCCc1ncc(C(F)(F)F)cc1Cl)c1ccccc1C(F)(F)F [Compound 1, N-{2-[3-chloro-5-(trifluoromethyl)-2-pyridinyl]ethyl}-2-trifluoromethylbenzamide]
% Efficacy ([1]; dose 500 g/ha): 35%
% Efficacy [2]: 40%
% Efficacy (Botrytis cinerea; dose 37 ppm): 45%
